The source of these data is patent US11572590B2, “Methods for evaluating tumor cell spheroids using 3D microfluidic cell culture device” (Dana-Farber Cancer Institute, Inc., priority 2017, dated 2023).

This test has as its system PDOTS. Briefly: Bead-based cytokine profiling of PDOTS after ex vivo checkpoint blockade. The test is classed as cell-based, human. As for the experimental part: Fresh tumor specimens (murine and human patients) were received in media (DMEM) on ice and minced in a 10 cm dish (on ice) using sterile forceps and scalpel. Minced tumor was resuspended in DMEM ([…], […] sodium pyruvate, 1:100 penicillin-streptomycin) (Corning CellGro, Manassas, Va.) +10% FBS (Gemini Bio-Products, West Sacramento, Calif.), 100 U/mL collagenase type IV (Life Technologies, Carlsbad, Calif.), and 15 mM HEPES (Life Technologies, Carlsbad, Calif.), except for CT26 tumors that were prepared in RPMI. Samples were pelleted and resuspended in 10-20 mL media. Red blood cells were removed from visibly bloody samples using RBC Lysis Buffer (Boston Bio-Products, Ashland, Mass.). […]
Two multiplex assays were performed utilizing a bead-based immunoassay approach, the Bio-Plex Pro™ Human Cytokine 40-plex Assay (Cat #171AK99MR2) and Bio-Plex Pro™ Mouse Cytokine Panel 1, 23-plex (Cat #M60009RDPD) on a Bio-plex 200 system (Cat #171000201). […] Fold changes relative to the MDOT/PDOT control were calculated and plotted as log 2FC. Lower and upper limits of quantitation (LLOQ/ULOQ) were imputed from standard curves for cytokines above or below detection. […]

As for “CTLA-4 blockade: PDOTS were treated with anti-CTLA-4 (ipilimumab, 50 μg/mL)”, the “CCL19/CXCL13 induction in PDOTS” value (Day 3, ipilimumab 50 μg/mL alone or with pembrolizumab 250 μg/mL) is listed as “comparatively minimal”.
“PD-1 blockade: PDOTS were treated with anti-PD-1 (pembrolizumab, 250 μg/mL)”: the “PDOTS samples with upregulation of CCL19 and CXCL13” value (Day 3 cytokine release, n=28, pembrolizumab 250 μg/mL) is 23/28.
